In patent US6737383B1, “Herbicidal oxadiazolidines” (priority 1999, dated 2004):

Assays:
smallflower flatsedge = test: Test B flood test smallflower flatsedge; format: in vivo, Cyperus difformis
Summary of the method: (§1)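 Flood test on plants grown to the 2-leaf stage; treated plants kept in greenhouse twelve to sixteen days, then visually rated against controls on a 0 (no effect) to 10 (complete control) scale.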

wild oat = test: Test B pre/postemergence wild oat; format: in vivo, Avena fatua
Summary of the method: (§2)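 Test chemicals in a non-phytotoxic solvent mixture with surfactant were sprayed preemergence onto planted seeds and postemergence onto plants 2 to 18 cm tall (1- to 4-leaf stage). After twelve to sixteen days in a greenhouse, injury was visually rated against untreated controls from 0 (no effect) to 10 (complete control).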

wheat = test: Test B pre/postemergence wheat; format: in vivo, Triticum aestivum
Summary of the method: as §2

soybean = test: Test B pre/postemergence soybean; format: in vivo, Glycine max
Summary of the method: as §2

bedstraw = test: Test B pre/postemergence bedstraw; format: in vivo, Galium aparine
Summary of the method: as §2

duck salad = test: Test B flood test duck salad; format: in vivo, Heteranthera limosa
Summary of the method: as §1

corn = test: Test B pre/postemergence corn; format: in vivo, Zea mays
Summary of the method: as §2

crabgrass = test: Test B pre/postemergence crabgrass; format: in vivo, Digitaria sanguinalis
Summary of the method: as §2

rape = test: Test B pre/postemergence rape; format: in vivo, Brassica napus
Summary of the method: as §2

blackgrass = test: Test B pre/postemergence blackgrass; format: in vivo, Alopecurus myosuroides
Summary of the method: as §2

surinam grass = test: Test B pre/postemergence surinam grass; format: in vivo, Brachiaria decumbens
Summary of the method: as §2

velvetleaf = test: Test B pre/postemergence velvetleaf; format: in vivo, Abutilon theophrasti
Summary of the method: as §2

rice = test: Test B flood test rice; format: in vivo, Oryza sativa
Summary of the method: as §1

sugar beet = test: Test B pre/postemergence sugar beet; format: in vivo, Beta vulgaris
Summary of the method: as §2

purple nutsedge = test: Test B pre/postemergence purple nutsedge; format: in vivo, Cyperus rotundus; conditions: Postemergence
Summary of the method: as §2

pigweed = test: Test B pre/postemergence pigweed; format: in vivo, Amaranthus retroflexus
Summary of the method: as §2

[1] = Rate 62 g/ha, headed Pre-emergence (flood test species), scale 0 to 10 (0 no effect, 10 complete control)
[2] = Rate 125 g/ha, Pre-emergence, flood test species, scale 0 to 10 where 0 is no effect and 10 is complete control
[3] = Rate 250 g/ha, Pre-emergence, flood-test species, scale 0 to 10, 0 is no effect, 10 is complete control
[4] = Rate 500 g/ha, Pre-emergence, flood test species, scale 0 to 10 (0 no effect, 10 complete control)
[5] = Preemergence, Rate 62 g/ha, scale of 0 to 10 where 0 is no effect and 10 is complete control
[6] = Preemergence, Rate 250 g/ha, scale of 0 to 10 where 0 is no effect and 10 is complete control
[7] = Preemergence, Rate 500 g/ha, scale of 0 to 10 where 0 is no effect and 10 is complete control
[8] = Rate 62 g/ha, Postemergence, scale of 0 to 10 where 0 is no effect and 10 is complete control
[9] = Rate 125 g/ha, Postemergence, scale 0 to 10
[10] = Rate 125 g/ha, Preemergence, scale of 0 to 10 where 0 is no effect and 10 is complete control
[11] = Rate 500 g/ha, Postemergence, scale 0 to 10, 0 no effect, 10 complete control

COCCOCn1c(=O)on(C(=O)N(c2ccc(F)cc2)C(C)C)c1=O [Compound 220]
S. Flatsedge plant response rating (smallflower flatsedge; [1]): 0
S. Flatsedge plant response rating (smallflower flatsedge; [2]): 0
S. Flatsedge plant response rating (smallflower flatsedge; [3]): 0
S. Flatsedge plant response rating (smallflower flatsedge; [4]): 0
Wild oats plant response rating (wild oat; [5]): 3
Wild oats plant response rating (wild oat; [6]): 7
Plant response rating, Wild oats (wild oat; [7]): 8
Wild oats plant response rating (wild oat; [8]): 0
Wild oats plant response rating (wild oat; [9]): 0
Wild oats plant response rating (wild oat; [10]): 5
Plant response rating (0 to 10; 0 is no effect, 10 is complete control), Wild oats (wild oat; Rate 250 g/ha, Postemergence): 2
Wild oats plant response rating (wild oat; [11]): 2
Wheat plant response rating (wheat; [5]): 6
Wheat plant response rating (wheat; [6]): 8
Plant response rating, Wheat (wheat; [7]): 8
Wheat plant response rating (wheat; [8]): 3
Wheat plant response rating (wheat; [9]): 4
Wheat plant response rating (wheat; [10]): 7
Plant response rating (0 to 10; 0 is no effect, 10 is complete control), Wheat (wheat; Rate 250 g/ha, Postemergence): 6
Wheat plant response rating (wheat; [11]): 6
Soybean plant response rating (soybean; [5]): 0
Soybean plant response rating (soybean; [6]): 0
Plant response rating, Soybean (soybean; [7]): 3
Soybean plant response rating (soybean; [8]): 5
Soybean plant response rating (soybean; [9]): 5
Soybean plant response rating (soybean; [10]): 0
Plant response rating (0 to 10; 0 is no effect, 10 is complete control), Soybean (soybean; Rate 250 g/ha, Postemergence): 7
Soybean plant response rating (soybean; [11]): 7
Bedstraw plant response rating (bedstraw; [5]): 0
Bedstraw plant response rating (bedstraw; [6]): 10
Plant response rating, Bedstraw (bedstraw; [7]): 10
Bedstraw plant response rating (bedstraw; [8]): 6
Bedstraw plant response rating (bedstraw; [9]): 8
Bedstraw plant response rating (bedstraw; [10]): 4
Plant response rating (0 to 10; 0 is no effect, 10 is complete control), Bedstraw (bedstraw; Rate 250 g/ha, Postemergence): 8
Bedstraw plant response rating (bedstraw; [11]): 9
Ducksalad plant response rating (duck salad; [1]): 0
Ducksalad plant response rating (duck salad; [2]): 0
Ducksalad plant response rating (duck salad; [3]): 0
Ducksalad plant response rating (duck salad; [4]): 0
Corn plant response rating (corn; [5]): 0
Corn plant response rating (corn; [6]): 5
Plant response rating, Corn (corn; [7]): 7
Corn plant response rating (corn; [8]): 0
Corn plant response rating (corn; [9]): 2
Corn plant response rating (corn; [10]): 3
Plant response rating (0 to 10; 0 is no effect, 10 is complete control), Corn (corn; Rate 250 g/ha, Postemergence): 6
Corn plant response rating (corn; [11]): 6
Crabgrass plant response rating (crabgrass; [5]): 7
Crabgrass plant response rating (crabgrass; [6]): 8
Plant response rating, Crabgrass (crabgrass; [7]): 10
Crabgrass plant response rating (crabgrass; [8]): 3
Crabgrass plant response rating (crabgrass; [9]): 5
Crabgrass plant response rating (crabgrass; [10]): 7
Plant response rating (0 to 10; 0 is no effect, 10 is complete control), Crabgrass (crabgrass; Rate 250 g/ha, Postemergence): 7
Crabgrass plant response rating (crabgrass; [11]): 9
Rape plant response rating (rape; [5]): 1
Rape plant response rating (rape; [6]): 8
Plant response rating, Rape (rape; [7]): 8
Rape plant response rating (rape; [8]): 0
Rape plant response rating (rape; [9]): 0
Rape plant response rating (rape; [10]): 6
Plant response rating (0 to 10; 0 is no effect, 10 is complete control), Rape (rape; Rate 250 g/ha, Postemergence): 3
Rape plant response rating (rape; [11]): 4
Blackgrass plant response rating (blackgrass; [5]): 8
Blackgrass plant response rating (blackgrass; [6]): 10
Plant response rating, Blackgrass (blackgrass; [7]): 10
Blackgrass plant response rating (blackgrass; [8]): 5
Blackgrass plant response rating (blackgrass; [9]): 7
Blackgrass plant response rating (blackgrass; [10]): 9
Plant response rating (0 to 10; 0 is no effect, 10 is complete control), Blackgrass (blackgrass; Rate 250 g/ha, Postemergence): 8
Blackgrass plant response rating (blackgrass; [11]): 8
B. signalgrass plant response rating (surinam grass; [5]): 7
B. signalgrass plant response rating (surinam grass; Preemergence, Rate 250 g/ha, scale 0 to 10, 0 is no effect, 10 is complete control): 8
Plant response rating, B. signalgrass (surinam grass; [7]): 8
B. signalgrass plant response rating (surinam grass; [8]): 2
B. signalgrass plant response rating (surinam grass; Rate 125 g/ha, Postemergence, scale 0 (no effect) to 10 (complete control)): 7
B. signalgrass plant response rating (surinam grass; [10]): 7
Plant response rating (0 to 10; 0 is no effect, 10 is complete control), B. signalgrass (surinam grass; Rate 250 g/ha, Postemergence): 8
B. signalgrass plant response rating (surinam grass; [11]): 8
Velvetleaf plant response rating (velvetleaf; [5]): 1
Velvetleaf plant response rating (velvetleaf; [6]): 4
Plant response rating, Velvetleaf (velvetleaf; [7]): 8
Velvetleaf plant response rating (velvetleaf; [8]): 0
Velvetleaf plant response rating (velvetleaf; [9]): 0
Velvetleaf plant response rating (velvetleaf; [10]): 3
Plant response rating (0 to 10; 0 is no effect, 10 is complete control), Velvetleaf (velvetleaf; Rate 250 g/ha, Postemergence): 2
Velvetleaf plant response rating (velvetleaf; [11]): 2
Rice plant response rating (rice; [1]): 0
Rice plant response rating (rice; [2]): 0
Rice plant response rating (rice; [3]): 0
Rice plant response rating (rice; [4]): 0
Sugarbeets plant response rating (sugar beet; [5]): 5
Sugarbeets plant response rating (sugar beet; [6]): 8
Plant response rating, Sugarbeets (sugar beet; [7]): 8
Sugarbeets plant response rating (sugar beet; [8]): 0
Sugarbeets plant response rating (sugar beet; [9]): 0
Sugarbeets plant response rating (sugar beet; [10]): 6
Plant response rating (0 to 10; 0 is no effect, 10 is complete control), Sugarbeets (sugar beet; Rate 250 g/ha, Postemergence): 2
Sugarbeets plant response rating (sugar beet; [11]): 2
Nutsedge plant response rating (purple nutsedge; Rate 62 g/ha, scale of 0 to 10 where 0 is no effect and 10 is complete control): 0
Nutsedge plant response rating (purple nutsedge; Rate 125 g/ha, scale 0 to 10): 0
Plant response rating (0 to 10; 0 is no effect, 10 is complete control), Nutsedge (purple nutsedge; Rate 250 g/ha): 0
Nutsedge plant response rating (purple nutsedge; Rate 500 g/ha, scale 0 to 10, 0 no effect, 10 complete control): 0
Redroot pigweed plant response rating (pigweed; [5]): 0
Redroot pigweed plant response rating (pigweed; [6]): 8
Plant response rating, Redroot pigweed (pigweed; [7]): 10
Redroot pigweed plant response rating (pigweed; [8]): 0
Redroot pigweed plant response rating (pigweed; [9]): 1
Redroot pigweed plant response rating (pigweed; [10]): 2
Plant response rating (0 to 10; 0 is no effect, 10 is complete control), Redroot pigweed (pigweed; Rate 250 g/ha, Postemergence): 3
Redroot pigweed plant response rating (pigweed; [11]): 4
